Measured values: ChEMBL document CHEMBL4420060, “Combinatorial therapies for the treatment of neoplasias using the opioid growth factor receptor” (2013)
Calls of active or inactive are those of the source. The rule behind the calls is not given here.

Legend:
UMSCC1 [1] = test: Growth inhibition of human UM-SCC-1 cells assessed as decrease in cell number at 0.01 uM in presence of 1 uM opioid antagonist naloxone incubated for 24 to 96 hrs by MTS assay relative to control; type: functional, cell-based
UMSCC1 [2] = test: Antitumor activity against human UM-SCC-1 cells xenografted in nu/nu mouse assessed as reduction in tumor measured on 4 to 36 day of measurable tumors at 120 mg/kg dosed every 3 days relative to control; type: functional, organism-based
UMSCC1 [3] = test: Induction of cell cycle arrest in human UM-SCC-1 cells assessed as accumulation at G1/S phase after 6 hrs by flow cytometry; type: functional, cell-based
UMSCC1 [4] = test: Antitumor activity against human UM-SCC-1 cells xenografted in nu/nu mouse assessed as reduction in tumor measured on 4 to 36 day of measurable tumors at 120 mg/kg dosed every 3 days and co-treated with 10 mg/kg OGF relative to control; type: functional, organism-based
Mus musculus [5] = test: Effect on plasma OGF level in athymic BALB/c nu/nu nude mouse xenografted with MIAPaCa2 cells at 120 mg/kg dosed every 3 days by radioimmunoassay; type: functional, organism-based
MIA PaCa-2 [6] = test: Antitumor activity against human MIAPaCa2 cells xenografted in athymic BALB/c nu/nu nude mouse assessed as reduction in tumor volume at 120 mg/kg dosed every 3 days and co-treated with 10 mg/kg OGF measured on day 45 after tumor cell inoculation; type: functional; parameters: scale not given: the % may be the effect or the level left
UMSCC1 [7] = test: Antitumor activity against human UM-SCC-1 cells xenografted in nu/nu mouse assessed as latency time for measurable (62.5 mm3) tumors at 120 mg/kg dosed every 3 days (Rvb <=14 days); type: functional
MIA PaCa-2 [8] = test: Antitumor activity against human MIAPaCa2 cells xenografted in athymic BALB/c nu/nu nude mouse assessed as latency time for measurable tumor at 10 mg/kg dosed daily measured on day 10 after tumor cell inoculation (reference value: 13.2 +/- 1.8 days); type: functional
[9] = Toxicity in athymic BALB/c nu/nu nude mouse xenografted with human MIAPaCa2 cells assessed as body weight at 10 mg/kg dosed daily measured on day 45 after tumor cell inoculation (reference value: 33.3 +/- 1 g); type: organism-based; conditions: in vivo
MIA PaCa-2 [10] = test: Growth inhibition of human MIAPaCa2 cells assessed as decrease in cell number at 0.01 uM incubated for 48 hrs in presence of 1 uM OGF by MTS assay relative to control; type: functional
MIA PaCa-2 [11] = test: Growth inhibition of human MIAPaCa2 cells assessed as decrease in cell number at 0.01 uM in presence of 1 uM OGF incubated for 48 hrs followed by compound wash out by 50% replacement of media and measured after 48 hrs by MTS assay relative to control; type: functional, cell-based
MIA PaCa-2 [12] = test: Antitumor activity against human MIAPaCa2 cells xenografted in athymic BALB/c nu/nu nude mouse assessed tumor volume at 120 mg/kg dosed every 3 days and co-treated with 10 mg/kg OGF measured on day 45 after tumor cell inoculation (reference value: 8935 +/- 1694 mm3); type: functional
MIA PaCa-2 [13] = test: Antitumor activity against human MIAPaCa2 cells xenografted in athymic BALB/c nu/nu nude mouse assessed as effect on tumor incidence at 10 mg/kg dosed daily measured on day 16 after tumor cell inoculation relative to control; type: functional, organism-based
MIA PaCa-2 [14] = test: Antitumor activity against human MIAPaCa2 cells xenografted in athymic BALB/c nu/nu nude mouse assessed as tumor incidence at 120 mg/kg dosed every 3 days and co-treated with 10 mg/kg OGF measured on day 10 after tumor cell inoculation (reference value: 80%); type: functional
MIA PaCa-2 [15] = test: Antitumor activity against human MIAPaCa2 cells xenografted in athymic BALB/c nu/nu nude mouse assessed as latency time for measurable tumor at 120 mg/kg dosed every 3 days and co-treated with 10 mg/kg OGF measured on day 10 after tumor cell inoculation (reference value: 13.2 +/- 1.8 days); type: functional
Mus musculus [16] = test: Effect on plasma OGF level in athymic BALB/c nu/nu nude mouse xenografted with MIAPaCa2 cells at 120 mg/kg dosed every 3 days and co-treated with 10 mg/kg OGF by radioimmunoassay; type: functional, organism-based
MIA PaCa-2 [17] = test: Growth inhibition of human MIAPaCa2 cells assessed as decrease in cell number at 0.01 uM incubated for 96 hrs in presence of 1 uM opioid antagonist naloxone by MTS assay relative to control; type: functional, cell-based
MIA PaCa-2 [18] = test: Antitumor activity against human MIAPaCa2 cells xenografted in athymic BALB/c nu/nu nude mouse assessed as effect on tumor incidence at 120 mg/kg dosed every 3 days measured on day 16 after tumor cell inoculation relative to control; type: functional, organism-based
MIA PaCa-2 [19] = test: Antitumor activity against human MIAPaCa2 cells xenografted in athymic BALB/c nu/nu nude mouse assessed as tumor incidence at 120 mg/kg dosed every 3 days and co-treated with 10 mg/kg OGF and measured on day 16 after tumor cell inoculation; type: functional
MIA PaCa-2 [20] = test: Antitumor activity against human MIAPaCa2 cells xenografted in athymic BALB/c nu/nu nude mouse assessed spleen weight at 10 mg/kg dosed daily measured on day 45 after tumor cell inoculation (reference value: 761 +/- 61 mg); type: functional
MIA PaCa-2 [21] = test: Antitumor activity against human MIAPaCa2 cells xenografted in athymic BALB/c nu/nu nude mouse assessed tumor weight at 120 mg/kg dosed every 3 days and co-treated with 10 mg/kg OGF measured on day 45 after tumor cell inoculation (reference value: 5.5 +/- 1 g); type: functional
MIA PaCa-2 [22] = test: Antitumor activity against human MIAPaCa2 cells xenografted in athymic BALB/c nu/nu nude mouse assessed as latency time for visible tumor at 10 mg/kg dosed daily measured on day 10 after tumor cell inoculation (reference value: 10.1 +/- 1.8 days); type: functional
MIA PaCa-2 [23] = test: Antitumor activity against human MIAPaCa2 cells xenografted in athymic BALB/c nu/nu nude mouse assessed as latency time for visible tumor at 120 mg/kg dosed every 3 days and co-treated with 10 mg/kg OGF measured on day 10 after tumor cell inoculation (reference value: 10.1 +/- 1.8 days); type: functional
PANC-1 = test: Growth inhibition of human PANC1 cells assessed as decrease in cell number at 0.01 uM incubated for 72 hrs by MTS assay relative to control; type: functional; conditions: PANC-1, 72 h, read-out: GI
MIA PaCa-2 [24] = test: Growth inhibition of human MIAPaCa2 cells assessed as decrease in cell number at 0.01 uM incubated for 72 hrs in presence of 1 uM OGF by MTS assay relative to control; type: functional
UMSCC1 [25] = test: Induction of cell cycle arrest in human UM-SCC-1 cells assessed as reduction in accumulation at G2/M phase in presence of OGF after 6 hrs by flow cytometry; type: functional, cell-based
MIA PaCa-2 [26] = test: Antitumor activity against human MIAPaCa2 cells xenografted in athymic BALB/c nu/nu nude mouse assessed tumor volume at 10 mg/kg dosed daily measured on day 45 after tumor cell inoculation (reference value: 8935 +/- 1694 mm3); type: functional
MIA PaCa-2 [27] = test: Antitumor activity against human MIAPaCa2 cells xenografted in athymic BALB/c nu/nu nude mouse assessed as tumor incidence at 10 mg/kg dosed daily measured on day 10 after tumor cell inoculation (reference value: 80%); type: functional

For `Nc1ccn([C@@H]2O[C@H](CO)[C@@H](O)C2(F)F)c(=O)n1` [GEMCITABINE], which “growth inhibition (GI)” value (UMSCC1 [1]) is on record?
The value was “Active”.

What about the Activity (UMSCC1 [2]) of the same compound?
The Activity was “Active”.

What about the Activity (UMSCC1 [3]) of the same compound?
Its Activity is “Active”.

And the Activity (UMSCC1 [4])?
The Activity was “Active”.

What about the Activity (Mus musculus [5]) of the same compound?
The Activity was “inactive”.

What about the Activity (MIA PaCa-2 [6]) of the same compound?
Its Activity is 83%.

And the Time (UMSCC1 [7])?
The Time was “<=2 weeks”.

What about the Time (MIA PaCa-2 [8]) of the same compound?
Its Time is 14.2 days.

And the Activity [9]?
Its Activity is 31.4 g.

And the “growth inhibition (GI)” value (MIA PaCa-2 [10])?
The value was 26%.

And the “growth inhibition (GI)” value (MIA PaCa-2 [11])?
The value was “Active”.

And the Activity (MIA PaCa-2 [12])?
The Activity was 1477 mm3.

What about the Activity (MIA PaCa-2 [13]) of the same compound?
Its Activity is “inactive”.

What about the Activity (MIA PaCa-2 [14]) of the same compound?
The Activity was 0%.

What about the Time (MIA PaCa-2 [15]) of the same compound?
The Time was 19.5 days.

What about the Activity (Mus musculus [16]) of the same compound?
The Activity was “inactive”.

What about the “growth inhibition (GI)” value (MIA PaCa-2 [17]) of the same compound?
The value was “Active”.

What about the Activity (MIA PaCa-2 [18]) of the same compound?
Its Activity is “inactive”.

What about the Activity (MIA PaCa-2 [19]) of the same compound?
Its Activity is 0%.

What about the Activity (MIA PaCa-2 [20]) of the same compound?
The Activity was 606 mg.

What about the Activity (MIA PaCa-2 [21]) of the same compound?
The Activity was 0.8 g.

And the Time (MIA PaCa-2 [22])?
Its Time is 10.7 days.

What about the Time (MIA PaCa-2 [23]) of the same compound?
Its Time is 16.2 days.

What about the inhibition of growth at 0.01 µM (PANC-1) of the same compound?
Its inhibition of growth at 0.01 µM is 54%.

And the “growth inhibition (GI)” value (MIA PaCa-2 [24])?
The value was 49%.

And the Activity (UMSCC1 [25])?
Its Activity is “Active”.

And the Activity (MIA PaCa-2 [26])?
Its Activity is 4849 mm3.

And the Activity (MIA PaCa-2 [27])?
Its Activity is 60%.
